Values of other authors as cited in patent US12303531B2, “Molecular complex assembly particles comprising bis-R1,R2-dithiocarbamate-metal complex and a ligand, method of preparation and use thereof” (priority 2018, dated 2025).

CCN(CC)C(=S)[S-].CCN(CC)C(=S)[S-].[Cu+2] [bis(diethyldithiocarbamate)copper(II)]
solubility constant in water: in the range of nanograms per litre
